Measured values published in US20240124529A1, “ANTIVIRAL […]-[…]-CoV-2 PEPTIDES AND USES THEREOF” (Dana-Farber Cancer Institute, Inc., priority 2020, published 2024).
Bridge positions count the residues as written; N and C are the ends. Square brackets hold non-standard residues; d marks the D form. Peptide text beside a SMILES is read from it. S5 = C=CCCC[C@](C)(N)C(=O)O; Nle = CCCC[C@H](N)C(=O)O

Assays:
[1] = target: Proteinase K (Parengyodontium album, UniProt P06873); assay: in vitro; conditions: pH 7.4
[2] = system: SARS-CoV-2
[3] = assay type: physicochemical; conditions: 25-50 μM peptide in 50 mM potassium phosphate (pH 7.5) or water

Sequence of Proteinase K (P06873 106-384): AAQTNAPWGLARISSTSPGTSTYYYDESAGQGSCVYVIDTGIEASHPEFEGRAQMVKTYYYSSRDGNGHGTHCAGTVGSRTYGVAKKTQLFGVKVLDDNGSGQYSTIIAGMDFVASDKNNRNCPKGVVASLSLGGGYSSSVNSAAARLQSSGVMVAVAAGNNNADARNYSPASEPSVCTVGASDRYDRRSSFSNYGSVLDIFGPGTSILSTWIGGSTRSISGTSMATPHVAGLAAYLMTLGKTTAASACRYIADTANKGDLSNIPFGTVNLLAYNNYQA

| Compound | half-life [1] [min] | IC50 [2] [µM] | alpha-helical structure in solution by circular dichroism [3] |
| --- | --- | --- | --- |
| CC[C@H](C)[C@H](NC(C)=O)C(=O)N[C@@H](CCC(N)=O)C(=O)N[C@@H](CCCCN)C(=O)N[C@@H](CCC(=O)O)C(=O)N[C@H](C(=O)N[C@@H](CC(=O)O)C(=O)N[C@@H](CCCNC(=N)N)C(=O)N[C@@H](CC(C)C)C(=O)N[C@@H](CC(N)=O)C(=O)N[C@@H](CCC(=O)O)C(=O)N[C@H](C(=O)N[C@@H](C)C(=O)N[C@@H](CCCCN)C(=O)N[C@@H](CC(N)=O)C(=O)N[C@@H](CC(C)C)C(=O)N[C@@H](CC(N)=O)C(=O)N[C@@H](CCC(=O)O)C(=O)N[C@@H](CO)C(=O)N[C@@H](CC(C)C)C(N)=O)C(C)C)[C@@H](C)CC [SEQ ID NO:10, reference compound] | 35 | – | – |
| CC[C@H](C)[C@H](NC(C)=O)C(=O)N[C@@H](CCC(N)=O)C(=O)N[C@@]1(C)CCCC=CCCC[C@@](C)(C(=O)N[C@@H](CC(C)C)C(=O)N[C@@H](CC(N)=O)C(=O)N[C@@H](CCC(=O)O)C(=O)N[C@H](C(=O)N[C@@H](C)C(=O)N[C@@H](CCCCN)C(=O)N[C@@]2(C)CCCC=CCCC[C@@](C)(C(=O)N[C@@H](CC(C)C)C(N)=O)NC(=O)[C@H](CCC(=O)O)NC(=O)[C@H](CC(N)=O)NC(=O)[C@H](CC(C)C)NC2=O)C(C)C)NC(=O)[C@H](CC(=O)O)NC(=O)[C@H]([C@@H](C)CC)NC(=O)[C@H](CCC(=O)O)NC1=O [SEQ ID NO:52, IQX1EIDX2LNEVAKX3LNEX4L] (Ac-IQ[S5]EID[S5]LNEVAK[S5]LNE[S5]L-NH2; staple 3-7, 14-18) | > 1000 | < 6 | – |
| CC[C@H](C)[C@H](NC(=O)[C@H](Cc1ccc(O)cc1)NC(=O)[C@H](CCC(N)=O)NC(=O)[C@H](CCC(=O)O)NC(=O)[C@H](Cc1ccc(O)cc1)NC(=O)[C@H](CCCCN)NC(=O)CNC(=O)[C@H](CC(C)C)NC(=O)[C@H](CCC(=O)O)NC(=O)[C@H](CCC(N)=O)NC(=O)[C@H](CC(C)C)NC(=O)[C@H](CC(=O)O)NC(=O)[C@@H](NC(=O)[C@H](CC(C)C)NC(=O)[C@H](CO)NC(=O)[C@]1(C)CCCC=CCCC[C@](C)(NC(=O)[C@H](C)NC(=O)[C@@H](NC(=O)[C@H](CCC(=O)O)NC(=O)[C@H](CC(N)=O)NC(=O)[C@H](CC(C)C)NC(=O)[C@]2(C)CCCC=CCCC[C@](C)(NC(=O)[C@H](CCC(N)=O)NC(=O)[C@@H](NC(=O)[C@H](CC(N)=O)NC(=O)[C@@H](NC(=O)[C@@H](NC(=O)[C@H](CO)NC(=O)[C@H](C)NC(=O)[C@H](CC(N)=O)NC(=O)[C@@H](NC(=O)CNC(=O)[C@H](CO)NC(=O)[C@@H](NC(C)=O)[C@@H](C)CC)[C@@H](C)CC)C(C)C)C(C)C)[C@@H](C)CC)C(=O)N[C@@H](CCC(=O)O)C(=O)N[C@@H]([C@@H](C)CC)C(=O)N[C@@H](CC(=O)O)C(=O)N2)C(C)C)C(=O)N[C@@H](CC(N)=O)C(=O)N[C@@H](CC(C)C)C(=O)N[C@@H](CC(N)=O)C(=O)N1)[C@@H](C)CC)C(N)=O [SEQ ID NO:158] | 33 | – | – |
| CCCC[C@@H]1NC(=O)[C@H](CCC(=O)O)NC(=O)[C@H](Cc2ccc(O)cc2)NC(=O)[C@@](C)(NC(=O)[C@H](CC(C)C)NC(=O)[C@H](CC(=O)O)NC(=O)[C@H](CC(C)C)NC(=O)[C@H](Cc2ccccc2)NC(=O)[C@@H](NC(=O)[C@@H](NC(=O)[C@H](CC(N)=O)NC(=O)[C@@H](NC(=O)[C@H](CCC(N)=O)NC(=O)[C@H](CC(=O)O)NC(=O)[C@H](CC(C)C)NC(=O)[C@H](CO)NC(C)=O)[C@@H](C)CC)C(C)C)[C@@H](C)O)CCCC=CCCC[C@@](C)(C(=O)N[C@@H](CCCCN)C(=O)N[C@@H](CC(C)C)C(=O)N[C@@H](CCC(=O)O)C(=O)N[C@@H](CCC(=O)O)C(=O)N[C@@H](C)C(=O)N[C@H](C(=O)N[C@@]2(C)CCCC=CCCC[C@@](C)(C(=O)N[C@@H](CO)C(=O)N[C@@H](Cc3ccc(O)cc3)C(=O)N[C@H](C(=O)N[C@@H](CC(=O)O)C(=O)N[C@@H](CC(C)C)C(=O)N[C@@H](CCCCN)C(=O)N[C@@H](CCC(=O)O)C(N)=O)[C@@H](C)CC)NC(=O)[C@H](CCC(=O)O)NC(=O)[C@H](CC(C)C)NC(=O)[C@H](CCCCN)NC2=O)[C@@H](C)CC)NC1=O [SEQ ID NO:177, SLDQINVTFLDLX1YEBX2KLEEAIX3KLEX4SYIDLKE] (Ac-SLDQINVTFLDL[S5]YE[Nle][S5]KLEEAI[S5]KLE[S5]SYIDLKE-NH2; staple 13-17, 24-28) | 840 | – | – |
| SLDQINVTFLDLEYEMKKLEEAIKKLEESYIDLKEL [SEQ ID NO:110, reference compound] | – | – | little to no alpha-helical structure |
